Laboratory results published in patent publication US20100029761A1, “NOVEL COMPOUNDS, PHARMACEUTICAL COMPOSITIONS CONTAINING SAME, AND METHODS OF USE FOR SAME” (priority 2005, published 2010).
Values after ≈ are worked out from the molar mass of the structure shown. Read-outs that look alike come from different tables or passages of the source.

Legend:
[1] = tested on: Enterococcus faecalis (ATCC # 29212); experiment: Broth microdilution MIC, E. faecalis; format: cell-based; conditions: for MIC: Enterococcus faecalis, ATCC29212
Experimental: (§1) A broth microdilution assay is used to assess the antimicrobial activity of the compounds. […] Microorganisms tested include Staphylococcus aureus (ATCC # 29213), Enterococcus faecalis (ATCC # 29212), Pseudomonas aeruginosa (ATCC # 27853), and Escherichia coli (ATCC # 25922). The assay is performed in two growth media, Mueller Hinton Broth and Trypticase Soy Broth. A blood (Tsoy/5% sheep blood) agar plate is inoculated from frozen stocks maintained in T soy broth containing 10% glycerol and incubated overnight at 37° C. Colonies are suspended in sterile broth so that the turbidity matches the turbidity of a 0.5 McFarland standard. The inoculum is diluted 1:10 in sterile broth (Mueller Hinton or Trypticase soy) and 195 ul is dispensed per well of a 96-well plate. The compounds to be tested, dissolved in DMSO, are added to the wells in 5 ul volume at the following concentrations: 25, 12.5, 6.25, 3.125, 1.56 and 0.78 ug/ml in duplicate. Additional concentrations are tested if required. 5 ul of DMSO added to duplicate wells are the vehicle control. Serial dilutions of positive control compounds, vancomycin (E. faecalis and S. aureus) and tobramycin (E. coli and P. aeruginosa), are included in each run. After 24 hours of incubation at 37° C., plates are read at OD600 on a Molecular Devices SpectraMax Plus Spectrophotometer. Average OD600 values are computed using SOFTmax Pro Software (Molecular Devices) and MIC values are determined by linear regression analysis using Prism version 3.02 (Graph Pad Software, San Diego). The MIC is defined as the concentration of compound required to produce an OD600 reading equivalent to 10% of the vehicle control reading.

[2] = Weight loss, DIO; format: in vivo; conditions: 20 mg/kg
[3] = tested on: Escherichia coli (ATCC # 25922); experiment: Broth microdilution MIC, E. coli; format: cell-based; conditions: for Ecoli/MH (MIC): Mueller Hinton Broth; for Ecoli/Tsoy (MIC): Trypticase Soy Broth
Experimental: as §1

[4] = Trypticase Soy Broth, read-out: EF/Tsoy (MIC)

MIC [1, 4] [µg/mL]	EF/MH (MIC) ([1]; Mueller Hinton Broth)	Ecoli/MH (MIC) [3]	Ecoli/Tsoy (MIC) [3]	MIC ([1]; Mueller Hinton Broth, read-out: EF/MH (MIC)) [µg/mL]	Compound	Weight Loss DIO ([2]; day 2)	Weight Loss DIO ([2]; day 3)
163 (≈ 714 µM)	Neg	Neg	Neg	–	CCCCC1OC(=O)C(O)=C1C(=O)OCC (stereo not drawn) [Compound 2]	DIO: 20 mg/kg: 3.0% (day 2)	–
42 (≈ 148 µM)	Neg	Neg	Neg	–	CCCCCCCCC1OC(=O)C(=O)C1C(=O)OCC (stereo not drawn) [Compound 1]	–	DIO: 20 mg/kg: 4.6% (day 3)
135 (≈ 364 µM)	–	–	–	100 (≈ 270 µM)	CCCCCCCCC1OC(=O)C(OCC(=O)OCC)=C1C(=O)OCC (stereo not drawn) [Compound 3]	–	–
